Reference: ChEMBL document CHEMBL1201862, “PubChem BioAssay data set” (2004)
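Exposure lasted 48 hours, with cells grown in 96-well plates and compounds tested at five concentrations. GI50: concentration for 50% inhibition of growth.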 The source made the active and inactive calls. No stated cut-off is given here; in the data, active = GI50 up to about 1.1 µM and inactive = higher.

Assays:
Assay in all cases: DTP human tumour cell line panel, 48 h
[1] = test system: HCT-116
[2] = test system: SNB-75
[3] = test system: EKVX
[4] = test system: MDA-MB-435
[5] = test system: CAKI-1
[6] = test system: KM12
[7] = test system: HCC 2998
[8] = test system: TK-10
[9] = test system: IGROV-1
[10] = test system: DU-145
[11] = test system: MCF7
[12] = test system: OVCAR-8
[13] = test system: A498
[14] = test system: LOX IMVI
[15] = test system: SNB-19
[16] = test system: SN12C
[17] = test system: SF-268
[18] = test system: SK-MEL-28
[19] = test system: SK-MEL-2

Row | Compound | GI50 [1] | GI50 [2] | GI50 [3] | GI50 [4] | GI50 [5] | GI50 [6] | GI50 [7] | GI50 [8] | GI50 [9] | GI50 [10] | GI50 [11] | GI50 [12] | GI50 [13] | GI50 [14] | GI50 [15] | GI50 [16] | GI50 [17] | GI50 [18] | GI50 [19]
1 | c1ccc2nc3c(nc2c1)sc1nc2ccccc2n13 | > 100 µM (inactive) | > 100 µM (inactive) | > 100 µM (inactive) | > 100 µM (inactive) | > 100 µM (inactive) | > 100 µM (inactive) | > 100 µM (inactive) | > 100 µM (inactive) | > 100 µM (inactive) | > 100 µM (inactive) | 0.933 µM (active) | > 100 µM (inactive) | 26.1 µM (inactive) | > 100 µM (inactive) | 93.8 µM (inactive) | > 100 µM (inactive) | 56.1 µM (inactive) |  | 
2 | Cc1ccccc1C1OC1C(=O)c1ccccc1N (stereo not drawn) | 44.1 µM (inactive) |  |  | 20.7 µM (inactive) | 45.8 µM (inactive) | 39.7 µM (inactive) | > 100 µM (inactive) | > 100 µM (inactive) |  | > 100 µM (inactive) | 55.3 µM (inactive) | > 100 µM (inactive) | > 100 µM (inactive) | 34.9 µM (inactive) | 56.4 µM (inactive) | 78.7 µM (inactive) | > 100 µM (inactive) | > 100 µM (inactive) | 43.3 µM (inactive)
3 | CS(=O)(=O)c1ccc(/N=C/C=C/Nc2ccc(S(C)(=O)=O)cc2)cc1 | > 100 µM (inactive) | > 100 µM (inactive) | > 100 µM (inactive) | > 100 µM (inactive) | > 100 µM (inactive) | 27.4 µM (inactive) | > 100 µM (inactive) | > 100 µM (inactive) | > 100 µM (inactive) | > 100 µM (inactive) | > 100 µM (inactive) | > 100 µM (inactive) | > 100 µM (inactive) |  | > 100 µM (inactive) | > 100 µM (inactive) | > 100 µM (inactive) | > 100 µM (inactive) | > 100 µM (inactive)
4 | COC(=O)C1=C(C(=O)OC)C(Cc2ccccc2)(OO)OC1=O (stereo not drawn) | 3.35 µM (inactive) | 9.33 µM (inactive) | 11.3 µM (inactive) | 3.52 µM (inactive) | 4.82 µM (inactive) | 19.1 µM (inactive) | 60.1 µM (inactive) | 3.4 µM (inactive) | 4.65 µM (inactive) | 23 µM (inactive) | 3.78 µM (inactive) | 18.4 µM (inactive) |  | 3.59 µM (inactive) | 22 µM (inactive) | 4.22 µM (inactive) |  | 7.76 µM (inactive) | 5.65 µM (inactive)
5 | C[N+]1([O-])CCC(O)(C2CC2)CC1 (stereo not drawn) | > 100 µM (inactive) | > 100 µM (inactive) | > 100 µM (inactive) | > 100 µM (inactive) | > 100 µM (inactive) | > 100 µM (inactive) | > 100 µM (inactive) | > 100 µM (inactive) | > 100 µM (inactive) | > 100 µM (inactive) | > 100 µM (inactive) | > 100 µM (inactive) |  | > 100 µM (inactive) | > 100 µM (inactive) | > 100 µM (inactive) | > 100 µM (inactive) | 0.0399 µM (active) | > 100 µM (inactive)
6 | COc1cc2oc(=O)cc(C)c2c(OC)c1OC(C)=O | > 100 µM (inactive) | > 100 µM (inactive) | > 100 µM (inactive) | > 100 µM (inactive) |  | > 100 µM (inactive) |  | > 100 µM (inactive) | > 100 µM (inactive) | > 100 µM (inactive) | > 100 µM (inactive) | > 100 µM (inactive) | > 100 µM (inactive) | > 100 µM (inactive) | > 100 µM (inactive) | > 100 µM (inactive) | > 100 µM (inactive) | > 100 µM (inactive) | > 100 µM (inactive)
7 | COc1ccc(/N=[N+](\[O-])c2ccc(OC)cc2)cc1 | > 100 µM (inactive) | > 100 µM (inactive) | > 100 µM (inactive) | > 100 µM (inactive) | > 100 µM (inactive) | > 100 µM (inactive) | > 100 µM (inactive) | > 100 µM (inactive) | > 100 µM (inactive) | > 100 µM (inactive) | > 100 µM (inactive) | > 100 µM (inactive) | > 100 µM (inactive) |  | > 100 µM (inactive) |  | > 100 µM (inactive) | > 100 µM (inactive) | > 100 µM (inactive)
8 | COC(=O)CNC(=O)C(Cc1ccccc1)NC(=O)c1ccc(-c2ccc(Cl)cc2Cl)o1 (stereo not drawn) | 14.8 µM (inactive) | 30.9 µM (inactive) | 20.3 µM (inactive) | 26.9 µM (inactive) | 19.2 µM (inactive) | 24.4 µM (inactive) |  | 24.7 µM (inactive) | 18.7 µM (inactive) | 37.6 µM (inactive) | 17.8 µM (inactive) | 25.1 µM (inactive) | 10.7 µM (inactive) | 23.5 µM (inactive) | 35.3 µM (inactive) | 26.3 µM (inactive) | 19.8 µM (inactive) | 43.8 µM (inactive) | 28.3 µM (inactive)
